Several values for one entry are separate records, joined by “and”; a condition that tells them apart may be missing. Equal entries are not always repeated. Where two headings read alike, the source gives them in different places. Residues, ends and D or L forms follow the SMILES beside them.
Assays:
[1] = test system: MDR clinical isolate of P. aeruginosa 2301; assay: Systemic infection in mice, % survival; format: in vivo; conditions: Table 7, mice, Oral
P. aeruginosa 2301 [2] = assay: Diameter of zone of inhibition of antimicrobial agents with or without efflux pump inhibitor; format: cell-based; conditions: for Diameter of zone of inhibition: P. aeruginosa 2301
P. aeruginosa 2301 [3] = assay: Survival of high density inoculation in MHA medium; format: cell-based; conditions: high density inoculation 2-5 × 10^9 CFU/ml; 20 mcg/ml in MHA medium
Description: In a most surprising manner, the combination of ceftazidime and azithromycin and tigecycline respectively brought about more than 7 log reduction in the bacterial count as compared to individual effects in highly resistant Pseudomonas strain. Moreover in a very unusual and surprising manner this tremendous bactericidal effect is taking place at concentrations much below than their individual inhibitory concentrations. […] It is also likely that ceftazidime interacts with outer membrane porins and acts as a porin modulator. Bacalum et al. have shown that ceftazidime binds to outer membrane porins with high affinity (Bacalum et al. Romanian. J. Biophys., 19, 105-116, 2009).

P. aeruginosa 23587 = assay: Diameter of zone of inhibition of antimicrobial agents with or without efflux pump inhibitor; format: cell-based; conditions: for change of activity in the presence of PAN: clinical isolates P. aeruginosa 23587 and P. aeruginosa 2301; for inhibition of MDR RND efflux pumps, concluded from potentiation: clinical isolates of P. aeruginosa
Description: Since RND efflux pumps operate by utilizing energy in […], metabolic inhibitor, sodium azide brings about MDR RND pump inhibition by causing energy deprivation.

[4] = Table 1, +PAN (20 μg/ml), 12.5 μg/well
[5] = Table 1, P. aeruginosa 23587, +PAN (20 μg/ml), 12.5 μg/well
[6] = Table 2, P. aeruginosa (23587), +sodium azide (10 μg/ml), 50 μg/well
[7] = Table 2, P. aeruginosa (23587), +sodium azide (10 μg/ml), 100 μg/well
[8] = Table 2, P. aeruginosa (23587), +sodium azide (10 μg/ml), 200 μg/well

Molecule: CS(=O)(=O)O.C[C@H](N)C(=O)OC1CCN(c2c(F)cc3c(=O)c(C(=O)O)cn4c3c2CC[C@@H]4C)CC1 [2′S,5S-(−)-9-Fluoro-8-(4-alaninyloxy-piperidin-1-yl)-5-methyl-6,7-dihydro-1-oxo-1H,5H-benzo[i,j]quinolizine-2-carboxylic acid methane sulfonic acid salt]
- % survival ([1]; 50 mg/kg BID × 1 day): 0%
- % survival ([1]; 75 mg/kg BID × 1 day): 16.6%
- % survival ([1]; 100 mg/kg BID × 1 day): 16.6%

Molecule: CC[C@H]1OC(=O)[C@H](C)[C@@H](O[C@H]2C[C@@](C)(OC)[C@@H](O)[C@H](C)O2)[C@H](C)[C@@H](O[C@@H]2O[C@H](C)C[C@H](N(C)C)[C@H]2O)[C@](C)(O)C[C@@H](C)CN(C)[C@H](C)[C@@H](O)[C@]1(C)O [Azithromycin, azithromycin]
- change of activity in the presence of cefepime and ceftazidime (P. aeruginosa 2301 [2]; Example 6): significant potentiation
- Diameter of zone of inhibition (P. aeruginosa 2301 [2]; [4]): 25 m.m.
- Diameter of zone of inhibition (P. aeruginosa 2301 [2]; Table 1, +PAN (20 μg/ml), 25 μg/well): 28 m.m.
- Diameter of zone of inhibition (P. aeruginosa 2301 [2]; Table 1, +PAN (20 μg/ml), 50 μg/well): 32 m.m.
- Diameter of zone of inhibition (P. aeruginosa 2301 [2]; Table 1, Control, 25 μg/well): SLI
- Diameter of zone of inhibition (P. aeruginosa 2301 [2]; Table 1, Control, 50 μg/well): 13.5H
- Diameter of zone of inhibition (P. aeruginosa 2301 [2]; Table 6, +Cefepime (2 μg/ml), 50 μg/Well): 24H
- Diameter of zone of inhibition (P. aeruginosa 2301 [2]; Table 6, +Cefepime (2 μg/ml), 100 μg/Well): 28H
- Diameter of zone of inhibition (P. aeruginosa 2301 [2]; Table 6, +Cefepime (2 μg/ml), 200 μg/Well): 30H
- Diameter of zone of inhibition (P. aeruginosa 2301 [2]; Table 6, +Ceftazidime (0.5 μg/ml), 50 μg/Well): 32H
- Diameter of zone of inhibition (P. aeruginosa 2301 [2]; Table 6, +Ceftazidime (0.5 μg/ml), 100 μg/Well): 36H
- Diameter of zone of inhibition (P. aeruginosa 2301 [2]; Table 6, +Ceftazidime (0.5 μg/ml), 200 μg/Well): 42H
- Diameter of zone of inhibition (P. aeruginosa 2301 [2]; Table 6, Control, 50 μg/Well): 12H
- Diameter of zone of inhibition (P. aeruginosa 2301 [2]; Table 6, Control, 100 μg/Well): 20H
- Diameter of zone of inhibition (P. aeruginosa 2301 [2]; Table 6, Control, 200 μg/Well): 24H
- CFU/ml at 48 h (P. aeruginosa 2301 [3]): >5 × 10^9 CFU/ml
- change of activity in presence of reserpine (P. aeruginosa 23587): no change
- change of activity on addition of sodium azide (P. aeruginosa 23587): potentiated
- change of activity in the presence of cefepime and ceftazidime (P. aeruginosa 23587; Example 3): significant potentiation
- Diameter of zone of inhibition (P. aeruginosa 23587; [5]): 16 m.m.
- Diameter of zone of inhibition (P. aeruginosa 23587; Table 1, P. aeruginosa 23587, +PAN (20 μg/ml), 25 μg/well): 23.5 m.m.
- Diameter of zone of inhibition (P. aeruginosa 23587; Table 1, P. aeruginosa 23587, +PAN (20 μg/ml), 50 μg/well): 27 m.m.
- Diameter of zone of inhibition (P. aeruginosa 23587; Table 1, P. aeruginosa 23587, Control, 25 μg/well): 19H
- Diameter of zone of inhibition (P. aeruginosa 23587; Table 1, P. aeruginosa 23587, Control, 50 μg/well): 23H
- Diameter of zone of inhibition (P. aeruginosa 23587; Table 2, P. aeruginosa (23587), +Reserpine (25 μg/ml), 50 μg/well): 12H
- Diameter of zone of inhibition (P. aeruginosa 23587; Table 2, P. aeruginosa (23587), +Reserpine (25 μg/ml), 100 μg/well): 20H
- Diameter of zone of inhibition (P. aeruginosa 23587; Table 2, P. aeruginosa (23587), +Reserpine (25 μg/ml), 200 μg/well): 24H
- Diameter of zone of inhibition (P. aeruginosa 23587; [6]): 21H
- Diameter of zone of inhibition (P. aeruginosa 23587; [7]): 24H
- Diameter of zone of inhibition (P. aeruginosa 23587; [8]): 30 m.m.
- Diameter of zone of inhibition (P. aeruginosa 23587; Table 2, P. aeruginosa (23587), Control, 50 μg/well): 12H
- Diameter of zone of inhibition (P. aeruginosa 23587; Table 2, P. aeruginosa (23587), Control, 100 μg/well): 20H
- Diameter of zone of inhibition (P. aeruginosa 23587; Table 2, P. aeruginosa (23587), Control, 200 μg/well): 24H
- Diameter of zone of inhibition (P. aeruginosa 23587; Table 3, P. aeruginosa 23587, +Cefepime (1 μg/ml), 100 μg/Well): 28H
- Diameter of zone of inhibition (P. aeruginosa 23587; Table 3, P. aeruginosa 23587, +Cefepime (1 μg/ml), 200 μg/Well): 30H
- Diameter of zone of inhibition (P. aeruginosa 23587; Table 3, P. aeruginosa 23587, +Ceftazidime (1 μg/ml), 100 μg/Well): 36 m.m.
- Diameter of zone of inhibition (P. aeruginosa 23587; Table 3, P. aeruginosa 23587, +Ceftazidime (1 μg/ml), 200 μg/Well): 42 m.m.
- Diameter of zone of inhibition (P. aeruginosa 23587; Table 3, P. aeruginosa 23587, Control, 100 μg/Well): 20H
- Diameter of zone of inhibition (P. aeruginosa 23587; Table 3, P. aeruginosa 23587, Control, 200 μg/Well): 24H
- change of activity in the presence of PAN (P. aeruginosa 23587): Synergistic enhancement

Molecule: CO/N=C(\C(=O)N[C@@H]1C(=O)N2C(C(=O)[O-])=C(C[N+]3(C)CCCC3)CS[C@H]12)c1csc(N)n1 [Cefepime, cefepime]
- inhibition of MDR RND efflux pumps, concluded from potentiation (P. aeruginosa 23587): inhibit RND pumps

Molecule: CC[n+]1c(-c2ccccc2)c2cc(N)ccc2c2ccc(N)cc21 [Ethidium Bromide, ethidium bromide]
- Diameter of zone of inhibition (P. aeruginosa 23587; [6]): 10H
- Diameter of zone of inhibition (P. aeruginosa 23587; [7]): 13H
- Diameter of zone of inhibition (P. aeruginosa 23587; [8]): 16H

Molecule: NC(N)=NCCCC(NC(=O)[C@@H](N)Cc1ccccc1)C(=O)Nc1ccc2ccccc2c1 (stereo partly drawn) [PAN, Phe-Arg-beta-naphthylamide] (HELM PEPTIDE1{F.[N=C(N)NCCCC(N[*:1])C(=O)[*:2]].[c1ccc2cc(N[*:1])ccc2c1]}$$$$V2.0)
- inhibition of MDR RND efflux pumps, concluded from potentiation (P. aeruginosa 23587): efflux inhibition

Molecule: CN(C)c1cc(NC(=O)CNC(C)(C)C)c(O)c2c1C[C@H]1C[C@H]3[C@H](N(C)C)C(O)=C(C(N)=O)C(=O)[C@@]3(O)C(O)=C1C2=O [Tigecycline, tigecycline]
- CFU/ml at 48 h (P. aeruginosa 2301 [3]): >5 × 10^9 CFU/ml

Molecule: CC(=O)NC[C@H]1CN(c2ccc(N3CCOCC3)c(F)c2)C(=O)O1 [linezolid]
- change of activity in the presence of PAN (P. aeruginosa 23587): Synergistic enhancement

Molecule: COC(=O)[C@H]1[C@H]2C[C@@H]3c4[nH]c5cc(OC)ccc5c4CCN3C[C@H]2C[C@@H](OC(=O)c2cc(OC)c(OC)c(OC)c2)[C@@H]1OC [reserpine]
- inhibition of MDR RND efflux pumps, concluded from potentiation (P. aeruginosa 23587): non inhibition

Molecule: colistin
- Diameter of zone of inhibition (P. aeruginosa 2301 [2]; [4]): 16 m.m.
- Diameter of zone of inhibition (P. aeruginosa 2301 [2]; Table 6, +Cefepime (2 μg/ml), 12.5 μg/Well): 16 m.m.
- Diameter of zone of inhibition (P. aeruginosa 2301 [2]; Table 6, +Ceftazidime (0.5 μg/ml), 12.5 μg/Well): 16 m.m.
- Diameter of zone of inhibition (P. aeruginosa 23587): 12.5 m.m. and 14 m.m. and 16.5 m.m. and 11.5 m.m. and 16 m.m.
- Diameter of zone of inhibition (P. aeruginosa 23587; [5]): 16.5 m.m.
- Diameter of zone of inhibition (P. aeruginosa 23587; Table 2, P. aeruginosa (23587), +Reserpine (25 μg/ml), 12.5 μg/well): 16 m.m.
- Diameter of zone of inhibition (P. aeruginosa 23587; Table 2, P. aeruginosa (23587), +sodium azide (10 μg/ml), 12.5 μg/well): 16 m.m.
- Diameter of zone of inhibition (P. aeruginosa 23587; Table 3, P. aeruginosa 23587, +Cefepime (1 μg/ml), 12.5 μg/Well): 16 m.m.
- Diameter of zone of inhibition (P. aeruginosa 23587; Table 3, P. aeruginosa 23587, +Ceftazidime (1 μg/ml), 12.5 μg/Well): 16 m.m.
- change of activity in the presence of PAN (P. aeruginosa 23587): no change
